Results: patent publication US20250367166A1, “NEXT GENERATION DIPROVOCIMS THAT ACTIVATE THE INNATE AND ADAPTIVE IMMUNE RESPONSE” (The Scripps Research Institute, priority 2022, published 2025)
Where two headings read alike, the source gives them in different places.

What was measured:
[1] = target: TLR1/TLR2 (Homo sapiens, UniProt O60603+Q15399); assay: TNF-α release from PMA-differentiated human THP-1 cells (ELISA); conditions: for Emax: THP-1, 4 h, read-out: Efficacy (magnitude) of response versus diprovocim-1 (100%), THP-1; for EC50: read-out: EC50 (nM) (THP-1): EC50 TNF-α release from human THP-1 cells;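 as to all read-outs here: cells exposed to graded compound concentrations for 4 h, TNF-α quantified in supernatant, LPS as positive and DMSO as negative control, values are duplicate means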
TLR1/TLR2 (Homo sapiens, UniProt O60603+Q15399), sequence (Q15399 25-786): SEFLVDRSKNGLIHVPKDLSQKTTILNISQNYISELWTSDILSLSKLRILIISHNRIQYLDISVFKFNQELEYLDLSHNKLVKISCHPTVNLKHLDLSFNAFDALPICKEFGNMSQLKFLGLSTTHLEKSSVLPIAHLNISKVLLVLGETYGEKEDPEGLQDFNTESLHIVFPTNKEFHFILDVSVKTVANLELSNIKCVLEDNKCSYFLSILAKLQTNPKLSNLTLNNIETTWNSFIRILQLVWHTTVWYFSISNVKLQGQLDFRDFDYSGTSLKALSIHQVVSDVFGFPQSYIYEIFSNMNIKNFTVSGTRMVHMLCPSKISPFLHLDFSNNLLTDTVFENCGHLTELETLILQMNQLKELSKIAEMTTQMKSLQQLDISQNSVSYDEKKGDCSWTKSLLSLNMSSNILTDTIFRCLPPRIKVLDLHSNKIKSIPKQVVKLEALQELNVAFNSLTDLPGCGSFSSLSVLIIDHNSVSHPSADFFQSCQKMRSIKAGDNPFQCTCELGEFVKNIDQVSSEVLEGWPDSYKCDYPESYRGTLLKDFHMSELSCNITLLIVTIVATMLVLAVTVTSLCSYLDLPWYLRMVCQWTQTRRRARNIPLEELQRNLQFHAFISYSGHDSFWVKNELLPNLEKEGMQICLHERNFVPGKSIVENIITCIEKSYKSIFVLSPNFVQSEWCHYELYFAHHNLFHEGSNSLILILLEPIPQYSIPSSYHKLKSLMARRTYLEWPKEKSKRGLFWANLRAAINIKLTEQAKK
TLR1/TLR2 (Homo sapiens, UniProt O60603+Q15399), sequence (O60603 21-784): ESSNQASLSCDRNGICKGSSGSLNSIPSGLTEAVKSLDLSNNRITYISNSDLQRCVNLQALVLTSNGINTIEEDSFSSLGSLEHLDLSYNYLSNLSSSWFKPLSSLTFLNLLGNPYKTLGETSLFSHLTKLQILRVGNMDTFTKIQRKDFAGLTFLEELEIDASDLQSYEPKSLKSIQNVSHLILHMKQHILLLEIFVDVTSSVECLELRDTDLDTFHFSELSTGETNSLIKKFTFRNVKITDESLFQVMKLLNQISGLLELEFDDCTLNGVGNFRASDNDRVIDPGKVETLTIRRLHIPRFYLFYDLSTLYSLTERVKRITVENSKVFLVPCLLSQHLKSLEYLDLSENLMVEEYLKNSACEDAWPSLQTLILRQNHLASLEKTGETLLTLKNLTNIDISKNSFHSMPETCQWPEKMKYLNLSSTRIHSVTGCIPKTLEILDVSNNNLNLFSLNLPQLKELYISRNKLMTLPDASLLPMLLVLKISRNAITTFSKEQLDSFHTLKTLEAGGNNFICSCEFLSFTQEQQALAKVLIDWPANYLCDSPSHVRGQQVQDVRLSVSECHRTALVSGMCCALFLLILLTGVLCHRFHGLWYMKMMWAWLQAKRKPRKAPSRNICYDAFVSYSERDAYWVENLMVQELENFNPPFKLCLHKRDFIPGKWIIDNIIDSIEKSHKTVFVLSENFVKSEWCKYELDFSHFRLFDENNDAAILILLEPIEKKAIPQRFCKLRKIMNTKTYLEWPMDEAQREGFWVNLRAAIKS

[2] = target: TLR1/TLR2 (Mus musculus, UniProt Q9EPQ1+Q9QUN7); assay: TNF-α release from thioglycolate-elicited mouse peritoneal macrophages (ELISA); conditions: for Emax: 4 h, read-out: Efficacy (magnitude) of response versus diprovocim-1 (100%), mouse macrophages; for EC50: read-out: EC50 (nM) (mouse): EC50 TNF-α release from mouse macrophages
TLR1/TLR2 (Mus musculus, UniProt Q9EPQ1+Q9QUN7), sequence (Q9EPQ1 26-795): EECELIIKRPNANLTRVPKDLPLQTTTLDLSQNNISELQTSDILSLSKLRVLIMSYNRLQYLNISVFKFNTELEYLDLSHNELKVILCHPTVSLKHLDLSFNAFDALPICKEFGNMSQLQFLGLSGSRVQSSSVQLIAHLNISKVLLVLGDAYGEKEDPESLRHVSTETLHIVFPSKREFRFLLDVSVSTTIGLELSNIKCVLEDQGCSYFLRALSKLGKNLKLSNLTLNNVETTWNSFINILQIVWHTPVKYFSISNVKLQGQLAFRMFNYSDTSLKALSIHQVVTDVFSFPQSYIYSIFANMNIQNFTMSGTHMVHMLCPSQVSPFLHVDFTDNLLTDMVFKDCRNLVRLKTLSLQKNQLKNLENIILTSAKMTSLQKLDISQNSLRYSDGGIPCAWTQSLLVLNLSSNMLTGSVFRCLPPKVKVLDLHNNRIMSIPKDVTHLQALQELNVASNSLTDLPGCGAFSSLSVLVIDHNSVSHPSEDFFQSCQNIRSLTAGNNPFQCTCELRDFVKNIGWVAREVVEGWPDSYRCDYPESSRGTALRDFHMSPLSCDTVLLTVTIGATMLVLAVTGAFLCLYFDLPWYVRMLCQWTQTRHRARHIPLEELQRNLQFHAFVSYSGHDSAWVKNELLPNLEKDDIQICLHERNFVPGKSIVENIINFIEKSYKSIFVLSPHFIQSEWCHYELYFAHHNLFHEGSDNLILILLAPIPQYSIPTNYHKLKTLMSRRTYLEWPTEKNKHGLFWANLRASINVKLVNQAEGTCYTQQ
TLR1/TLR2 (Mus musculus, UniProt Q9EPQ1+Q9QUN7), sequence (Q9QUN7 25-784): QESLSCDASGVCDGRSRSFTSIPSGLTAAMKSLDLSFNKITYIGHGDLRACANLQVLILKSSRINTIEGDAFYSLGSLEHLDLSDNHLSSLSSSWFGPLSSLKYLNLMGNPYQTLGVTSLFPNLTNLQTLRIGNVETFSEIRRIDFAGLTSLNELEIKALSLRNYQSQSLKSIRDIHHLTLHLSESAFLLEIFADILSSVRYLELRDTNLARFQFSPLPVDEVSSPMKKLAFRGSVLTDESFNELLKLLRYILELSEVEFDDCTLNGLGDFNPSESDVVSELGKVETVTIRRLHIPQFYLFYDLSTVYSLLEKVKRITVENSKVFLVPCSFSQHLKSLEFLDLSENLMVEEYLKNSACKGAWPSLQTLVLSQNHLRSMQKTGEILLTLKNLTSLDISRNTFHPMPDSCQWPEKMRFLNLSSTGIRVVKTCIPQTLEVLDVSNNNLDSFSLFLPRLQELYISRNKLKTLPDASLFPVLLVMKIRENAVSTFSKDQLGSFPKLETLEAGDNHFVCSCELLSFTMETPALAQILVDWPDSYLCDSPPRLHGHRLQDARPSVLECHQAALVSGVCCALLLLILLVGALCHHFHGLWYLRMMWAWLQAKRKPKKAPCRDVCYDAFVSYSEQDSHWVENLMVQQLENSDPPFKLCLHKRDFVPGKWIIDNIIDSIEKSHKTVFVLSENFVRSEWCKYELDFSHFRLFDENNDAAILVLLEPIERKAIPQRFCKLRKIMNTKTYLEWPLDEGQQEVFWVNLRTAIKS

SMILES	Emax [1]	EC50 ([1]; Table 5)	Emax [2]	EC50 ([2]; Table 5)	EC50 ([1]; Table 6)	EC50 ([2]; Table 6)
CN(CC(=O)OCCCCCCCCCCCCNC(=O)[C@@H]1CN(C(=O)c2ccc(C(=O)N3C[C@@H](C(=O)N[C@H]4C[C@@H]4c4ccccc4)[C@H](C(=O)N[C@H]4C[C@@H]4c4ccccc4)C3)cc2)C[C@H]1C(=O)N[C@H]1C[C@@H]1c1ccccc1)C(=O)OC(C)(C)C [Compound 70, 12-((3S,4S)-1-(4-((3S,4S)-3,4-Bis(((1S,2R)-2-phenyl-cyclopropyl)carbamoyl)pyrrolidine-1-carbonyl)-benzoyl)-4-(((1S,2R)-2-phenylcyclopropyl)carbamoyl)-pyrrolidine-3-carboxamido)-dodecyl 2-((tert-butoxycarbonyl)(methyl)amino)acetate]	100%	1.7 nM	110%	17 nM		
CC(C)(C)OC(=O)NNC(=O)OCCCCCCCCCCCCNC(=O)[C@@H]1CN(C(=O)c2ccc(C(=O)N3C[C@@H](C(=O)N[C@H]4C[C@@H]4c4ccccc4)[C@H](C(=O)N[C@H]4C[C@@H]4c4ccccc4)C3)cc2)C[C@H]1C(=O)N[C@H]1C[C@@H]1c1ccccc1 [Compound 71, 1-(12-((3S,4S)-1-(4-((3S,4S)-3,4-Bis(((1S,2R)-2-phenylcyclopropyl)carbamoyl)pyrrolidine-1-carbonyl)-benzoyl)-4-(((1S,2R)-2-phenylcyclopropyl)carbamoyl)-pyrrolidine-3-carboxamido)-dodecyl) 2-tert-butyl hydrazine-1,2-dicarboxylate]	100%	5 nM	220%	25 nM		
CC(C)(C)OC(=O)NCC(=O)NCC(=O)OCCCCCCCCCCCCNC(=O)[C@@H]1CN(C(=O)c2ccc(C(=O)N3C[C@@H](C(=O)N[C@H]4C[C@@H]4c4ccccc4)[C@H](C(=O)N[C@H]4C[C@@H]4c4ccccc4)C3)cc2)C[C@H]1C(=O)N[C@H]1C[C@@H]1c1ccccc1 [Compound 72, 12-((3S,4S)-1-(4-((3S,4S)-3,4-Bis(((1S,2R)-2-phenyl-cyclopropyl)carbamoyl)pyrrolidine-1-carbonyl)benzoyl)-4-(((1S,2R)-2-phenylcyclopropyl)carbamoyl)pyrrolidine-3-carboxamido)-dodecyl 2-(2-((tert-butoxycarbonyl)amino)acetamido)acetate]	110%	0.52 nM	110%	2.5 nM		
CC(C)(C)OC(=O)Nc1ccc(C(=O)OCCCCCCCCCCCCNC(=O)[C@@H]2CN(C(=O)c3ccc(C(=O)N4C[C@@H](C(=O)N[C@H]5C[C@@H]5c5ccccc5)[C@H](C(=O)N[C@H]5C[C@@H]5c5ccccc5)C4)cc3)C[C@H]2C(=O)N[C@H]2C[C@@H]2c2ccccc2)cc1 [Compound 73, 12-((3S,4S)-1-(4-((3S,4S)-3,4-Bis(((1S,2R)-2-phenyl-cyclopropyl)carbamoyl)pyrrolidine-1-carbonyl)-benzoyl)-4-(((1S,2R)-2-phenylcyclopropyl)carbamoyl)-pyrrolidine-3-carboxamido)-dodecyl 4-((tert-butoxycarbonyl)amino)benzoate]	90%		540%		0.57 nM	30 nM
Nc1ccc(C(=O)OCCCCCCCCCCCCNC(=O)[C@@H]2CN(C(=O)c3ccc(C(=O)N4C[C@@H](C(=O)N[C@H]5C[C@@H]5c5ccccc5)[C@H](C(=O)N[C@H]5C[C@@H]5c5ccccc5)C4)cc3)C[C@H]2C(=O)N[C@H]2C[C@@H]2c2ccccc2)cc1 [Compound 74, 12-((3S,4S)-1-(4-((3S,4S)-3,4-Bis(((1S,2R)-2-phenyl-cyclopropyl)carbamoyl)pyrrolidine-1-carbonyl)benzoyl)-4-(((1S,2R)-2-phenylcyclopropyl)carbamoyl)-pyrrolidine-3-carboxamido)-dodecyl 4-aminobenzoate]	100%		300%		0.05 nM	0.67 nM
O=C(OCCCCCCCCCCCCNC(=O)[C@@H]1CN(C(=O)c2ccc(C(=O)N3C[C@@H](C(=O)N[C@H]4C[C@@H]4c4ccccc4)[C@H](C(=O)N[C@H]4C[C@@H]4c4ccccc4)C3)cc2)C[C@H]1C(=O)N[C@H]1C[C@@H]1c1ccccc1)c1ccc(O)cc1 [Compound 75, 12-((3S,4S)-1-(4-((3S,4S)-3,4-Bis(((1S,2R)-2-phenylcyclopropyl)carbamoyl)pyrrolidine-1-carbonyl)benzoyl)-4-(((1S,2R)-2-phenyl-cyclopropyl)carbamoyl)pyrrolidine-3-carboxamido)-dodecyl 4-hydroxybenzoate]	100%		540%		1.7 nM	50 nM
CC(C)(C)Oc1ccc(C(=O)OCCCCCCCCCCCCNC(=O)[C@@H]2CN(C(=O)c3ccc(C(=O)N4C[C@@H](C(=O)N[C@H]5C[C@@H]5c5ccccc5)[C@H](C(=O)N[C@H]5C[C@@H]5c5ccccc5)C4)cc3)C[C@H]2C(=O)N[C@H]2C[C@@H]2c2ccccc2)cc1 [Compound 76, 12-((3S,4S)-1-(4-((3S,4S)-3,4-Bis(((1S,2R)-2-phenylcyclopropyl)carbamoyl)pyrrolidine-1-carbonyl)benzoyl)-4-(((1S,2R)-2-phenyl-cyclopropyl)carbamoyl)pyrrolidine-3-carboxamido)-dodecyl 4-(tert-butoxy)benzoate]	< 50%		150%		27 nM	540 nM
CC(C)(C)OC(=O)c1ccc(C(=O)OCCCCCCCCCCCCNC(=O)[C@@H]2CN(C(=O)c3ccc(C(=O)N4C[C@@H](C(=O)N[C@H]5C[C@@H]5c5ccccc5)[C@H](C(=O)N[C@H]5C[C@@H]5c5ccccc5)C4)cc3)C[C@H]2C(=O)N[C@H]2C[C@@H]2c2ccccc2)cc1 [Compound 77, 12-((3S,4S)-1-(4-((3S,4S)-3,4-Bis(((1S,2R)-2-phenylcyclopropyl)carbamoyl)pyrrolidine-1-carbonyl)benzoyl)-4-(((1S,2R)-2-phenyl-cyclopropyl)carbamoyl)pyrrolidine-3-carboxamido)-dodecyl tert-butyl terephthalate]	90%		190%		165 nM	785 nM
O=C(O)c1ccc(C(=O)OCCCCCCCCCCCCNC(=O)[C@@H]2CN(C(=O)c3ccc(C(=O)N4C[C@@H](C(=O)N[C@H]5C[C@@H]5c5ccccc5)[C@H](C(=O)N[C@H]5C[C@@H]5c5ccccc5)C4)cc3)C[C@H]2C(=O)N[C@H]2C[C@@H]2c2ccccc2)cc1 [Compound 78, 4-(((12-((3S,4S)-1-(4-((3S,4S)-3,4-Bis(((1S,2R)-2-phenylcyclopropyl)carbamoyl)pyrrolidine-1-carbonyl)benzoyl)-4-(((1S,2R)-2-phenylcyclopropyl)-carbamoyl)pyrrolidine-3-carboxamido)-dodecyl)oxy)carbonyl)benzoic acid]	100%		120%		0.69 nM	2.1 nM
CC(C)(C)OC(=O)c1ccc(C(=O)NCC(=O)OCCCCCCCCCCCCNC(=O)[C@@H]2CN(C(=O)c3ccc(C(=O)N4C[C@@H](C(=O)N[C@H]5C[C@@H]5c5ccccc5)[C@H](C(=O)N[C@H]5C[C@@H]5c5ccccc5)C4)cc3)C[C@H]2C(=O)N[C@H]2C[C@@H]2c2ccccc2)cc1 [Compound 79, tert-Butyl 4-((2-((12-((3S,4S)-1-(4-((3S,4S)-3,4-bis-(((1S,2R)-2-phenylcyclopropyl)carbamoyl)-pyrrolidine-1-carbonyl)benzoyl)-4-(((1S,2R)-2-phenylcyclopropyl)-carbamoyl)pyrrolidine-3-carboxamido)dodecyl)oxy)-2-oxoethyl)carbamoyl)benzoate]	100%		130%		6.6 nM	465 nM
O=C(CNC(=O)c1ccc(C(=O)O)cc1)OCCCCCCCCCCCCNC(=O)[C@@H]1CN(C(=O)c2ccc(C(=O)N3C[C@@H](C(=O)N[C@H]4C[C@@H]4c4ccccc4)[C@H](C(=O)N[C@H]4C[C@@H]4c4ccccc4)C3)cc2)C[C@H]1C(=O)N[C@H]1C[C@@H]1c1ccccc1 [Compound 80, 4-((2-((12-((3S,4S)-1-(4-((3S,4S)-3,4-Bis(((1S,2R)-2-phenylcyclopropyl)carbamoyl)pyrrolidine-1-carbonyl)-benzoyl)-4-(((1S,2R)-2-phenylcyclopropyl)carbamoyl)-pyrrolidine-3-carboxamido)-dodecyl)oxy)-2-oxoethyl)carbamoyl)benzoic acid]	100%		60%		0.17 nM	5 nM
CC(C)(C)OC(=O)/C=C/C(=O)NCC(=O)OCCCCCCCCCCCCNC(=O)[C@@H]1CN(C(=O)c2ccc(C(=O)N3C[C@@H](C(=O)N[C@H]4C[C@@H]4c4ccccc4)[C@H](C(=O)N[C@H]4C[C@@H]4c4ccccc4)C3)cc2)C[C@H]1C(=O)N[C@H]1C[C@@H]1c1ccccc1 [Compound 81, (E)-tert-Butyl 4-((2-((12-((3S,4S)-1-(4-((3S,4S)-3,4-bis(((1S,2R)-2-phenylcyclopropyl)carbamoyl)-pyrrolidine-1-carbonyl)benzoyl)-4-(((1S,2R)-2-phenylcyclopropyl)carbamoyl)pyrrolidine-3-carboxamido)dodecyl)oxy)-2-oxoethyl)amino)-4-oxobut-2-enoate]	90%		110%		2 nM	62 nM
O=C(O)/C=C/C(=O)NCC(=O)OCCCCCCCCCCCCNC(=O)[C@@H]1CN(C(=O)c2ccc(C(=O)N3C[C@@H](C(=O)N[C@H]4C[C@@H]4c4ccccc4)[C@H](C(=O)N[C@H]4C[C@@H]4c4ccccc4)C3)cc2)C[C@H]1C(=O)N[C@H]1C[C@@H]1c1ccccc1 [Compound 82, (E)-4-((2-((12-((3S,4S)-1-(4-((3S,4S)-3,4-Bis(((1S,2R)-2-phenylcyclopropyl)carbamoyl)-pyrrolidine-1-carbonyl)benzoyl)-4-(((1S,2R)-2-phenylcyclopropyl)carbamoyl)pyrrolidine-3-carboxamido)dodecyl)oxy)-2-oxoethyl)amino)-4-oxobut-2-enoic acid]	100%		60%		0.32 nM	7 nM
